≈ marks a conversion by molar mass, not a printed value.
Assays:
[1] = test system: Enterococcus; experiment: In vitro antibacterial activity, dilution in Mueller Hinton Agar (Table I); format: cell-based
Description: (§1) All the tests were carried out and (when necessary) scored under standard conditions. "MIC" means "minimum inhibitory concentration."
(§2) In vitro Antibacterial Activity of 2-aminoalkyl-3-phenyl-
(§3) indoles of the formula I. Dilution in Mueller Hinton Agar pH 7.4

[2] = test system: Escherichia coli; experiment: as above; format: cell-based
Description: as §1, §2, §3

[3] = test system: Klebsiella; experiment: as above; format: cell-based
Description: as §1, §2, §3

[4] = test system: Proteus mirabilis; experiment: as above; format: cell-based; settings: Mueller Hinton Agar pH 7.4
Description: as §1, §2, §3

[5] = test system: Proteus morganii; experiment: as above; format: cell-based; settings: Morganella morganii; strain Valz; Mueller Hinton Agar pH 7.4
Description: as §1, §2, §3

[6] = test system: Proteus rettgeri; experiment: as above; format: cell-based; settings: Providencia rettgeri; 'Proteus rettgeri mirabilis' [sic]; Mueller Hinton Agar pH 7.4
Description: as §1, §2, §3

[7] = test system: Proteus vulgaris; experiment: as above; format: cell-based; settings: strain Napol, Mueller Hinton Agar pH 7.4
Description: as §1, §2, §3

[8] = test system: Pseudomonas acruginosa; experiment: as above; format: cell-based
Description: as §1, §2, §3

[9] = test system: Salmonella; experiment: as above; format: cell-based
Description: as §1, §2, §3

[10] = test system: Staphylococcus aureus; experiment: as above; format: cell-based; settings: Mueller Hinton Agar pH 7.4
Description: as §1, §2, §3

[11] = test system: Streptococcus pyogenes; experiment: as above; format: cell-based
Description: as §1, §2, §3

[12] = test system: Candida albicans; experiment: In vitro Anti-Candida activity, dilutions in Sabouraud's Dextrose Agar (Table III); format: cell-based; settings: 48 h
Description: as §1
In vitro Anti-Candida Activity of 2-aminoalkyl-3-phenyl-
indoles of the formula I. Dilutions in Sabouraud's Dextrose
MIC (mcg/ml) after 48 hours

[13] = test system: Epidermophyton floccosum; experiment: In vitro antifungal activity, dilutions in Sabouraud's Dextrose Broth (Table IV); format: cell-based; settings: after 96 hours
Description: as §1
(§4) In vitro Antifungal Activity of 2-amioalkyl-3-phenylindoles
(§5) of the formula I against Dermetophytes and Aspergillus.
(§6) Dilutions in Sabouraud's Dextrose Broth.

[14] = test system: Microsporum distortum; experiment: as above; format: cell-based; settings: after 96 hours
Description: as §1, §4, §5, §6

[15] = test system: Microsporum nanum; experiment: as above; format: cell-based; settings: Nannizzia nana; after 96 hours
Description: as §1, §4, §5, §6

[16] = test system: Trichophyton ascoides; experiment: as above; format: cell-based; settings: after 96 hours
Description: as §1, §4, §5, §6

[17] = test system: Trichophyton discoides; experiment: as above; format: cell-based; settings: after 96 hours
Description: as §1, §4, §5, §6

[18] = test system: Trichophyton ferrugineum; experiment: as above; format: cell-based; settings: Microsporum ferrugineum; after 96 hours
Description: as §1, §4, §5, §6

[19] = test system: Trichophyton gallinae; experiment: as above; format: cell-based; settings: after 96 hours
Description: as §1, §4, §5, §6

[20] = test system: Trichophyton mentagrophytes; experiment: as above; format: cell-based; settings: 96 h
Description: as §1, §4, §5, §6

[21] = test system: Trichophyton rubrum; experiment: as above; format: cell-based; settings: 96 h
Description: as §1, §4, §5, §6

[22] = test system: Trichophyton soudenense; experiment: as above; format: cell-based; settings: after 96 hours
Description: as §1, §4, §5, §6

[23] = test system: Trichophyton tonsurans; experiment: as above; format: cell-based; settings: after 96 hours
Description: as §1, §4, §5, §6

[24] = test system: Tricoderm sp.; experiment: as above; format: cell-based; settings: after 96 hours
Description: as §1, §4, §5, §6

[25] = test system: T. mentagrophytes; experiment: Effect against topical T. mentagrophytes infections in guinea pigs (Table VI); format: in vivo; design: Average Sum of lesion scores, Days 1-5 / Average Sum of lesion scores, Days 1-10: scale not given here; settings: for Average Sum of lesion scores, Days 1-5: untreated controls 14.8; for Average Sum of lesion scores, Days 1-10: untreated controls 38.2
Description: as §1
Effect of some 2-aminoalkyl-3-phenylindoles of the formula II
against topical T. mentagrophytes infections in guinea pigs.

## NCc1[nH]c2cc(Br)c(Cl)cc2c1-c1ccccc1 [D, 2-aminomethyl-6-bromo-5-chloro-3-phenylindole]
[1]; pH 7.4, strain 373, Mueller Hinton Agar pH 7.4
  MIC: 3 µg/mL (≈ 8.94 µM)
[1]; pH 7.4, strain 0928/72, Mueller Hinton Agar pH 7.4
  MIC: 3 µg/mL (≈ 8.94 µM)
[2]; pH 7.4, strain 777, Mueller Hinton Agar pH 7.4
  MIC: 3 µg/mL (≈ 8.94 µM)
[2]; pH 7.4, strain 1574-1, Mueller Hinton Agar pH 7.4
  MIC: 3 µg/mL (≈ 8.94 µM)
[2]; pH 7.4, strain 4195, Mueller Hinton Agar pH 7.4
  MIC: 3 µg/mL (≈ 8.94 µM)
[2]; pH 7.4, strain 10536, Mueller Hinton Agar pH 7.4
  MIC: 3 µg/mL (≈ 8.94 µM)
[2]; pH 7.4, strain JR66, Mueller Hinton Agar pH 7.4
  MIC: 3 µg/mL (≈ 8.94 µM)
[3]; pH 7.4, strain 121, Mueller Hinton Agar pH 7.4
  MIC: 3 µg/mL (≈ 8.94 µM)
[3]; pH 7.4, strain 3020, Mueller Hinton Agar pH 7.4
  MIC: 3 µg/mL (≈ 8.94 µM)
[3]; pH 7.4, strain AD17, Mueller Hinton Agar pH 7.4
  MIC: 3 µg/mL (≈ 8.94 µM)
[3]; pH 7.4, strain AD22, Mueller Hinton Agar pH 7.4
  MIC: 3 µg/mL (≈ 8.94 µM)
[3]; pH 7.4, strain G3694, Mueller Hinton Agar pH 7.4
  MIC: 3 µg/mL (≈ 8.94 µM)
[4]; pH 7.4, strain Hard
  MIC: 3 µg/mL (≈ 8.94 µM)
[4]; pH 7.4, strain Peras
  MIC: 3 µg/mL (≈ 8.94 µM)
[5]
  MIC: 3 µg/mL (≈ 8.94 µM)
[6]
  MIC: 7.5 µg/mL (≈ 22.3 µM)
[7]
  MIC: 3 µg/mL (≈ 8.94 µM)
[8]; pH 7.4, strain 130, Mueller Hinton Agar pH 7.4
  MIC: 17.5 µg/mL (≈ 52.1 µM)
[8]; pH 7.4, strain 138, Mueller Hinton Agar pH 7.4
  MIC: 7.5 µg/mL (≈ 22.3 µM)
[8]; pH 7.4, strain 762, Mueller Hinton Agar pH 7.4
  MIC: 17.5 µg/mL (≈ 52.1 µM)
[8]; pH 7.4, strain 8709, Mueller Hinton Agar pH 7.4
  MIC: 7.5 µg/mL (≈ 22.3 µM)
[8]; pH 7.4, strain Trav. 1, Mueller Hinton Agar pH 7.4
  MIC: 7.5 µg/mL (≈ 22.3 µM)
[9]; TYPHI, pH 7.4, B typhi, Mueller Hinton Agar pH 7.4
  MIC: 3 µg/mL (≈ 8.94 µM)
[9]; pH 7.4, C1 Oao, Mueller Hinton Agar pH 7.4
  MIC: 3 µg/mL (≈ 8.94 µM)
[9]; pH 7.4, C2 Cuban, Mueller Hinton Agar pH 7.4
  MIC: 3 µg/mL (≈ 8.94 µM)
[9]; pH 7.4, C2 Napc, Mueller Hinton Agar pH 7.4
  MIC: 3 µg/mL (≈ 8.94 µM)
[9]; pH 7.4, Salmonella ent. 1, Mueller Hinton Agar pH 7.4
  MIC: 3 µg/mL (≈ 8.94 µM)
[10]; 209P, pH 7.4, strain 209P
  MIC: 3 µg/mL (≈ 8.94 µM)
[10]; pH 7.4, strain 59N
  MIC: 3 µg/mL (≈ 8.94 µM)
[10]; pH 7.4, strain Gray
  MIC: 3 µg/mL (≈ 8.94 µM)
[10]; pH 7.4, strain Wood
  MIC: 3 µg/mL (≈ 8.94 µM)
[10]; pH 7.4, strain Zeigler
  MIC: 3 µg/mL (≈ 8.94 µM)
[11]; pH 7.4, strain 27, Mueller Hinton Agar pH 7.4
  MIC: 3 µg/mL (≈ 8.94 µM)
[11]; pH 7.4, strain C, Mueller Hinton Agar pH 7.4
  MIC: 3 µg/mL (≈ 8.94 µM)
[11]; pH 7.4, strain Cruz, Mueller Hinton Agar pH 7.4
  MIC: 3 µg/mL (≈ 8.94 µM)
[12]; strain 1, after 48 hours
  MIC: 150 µg/mL (≈ 447 µM)
[12]; strain 2, after 48 hours
  MIC: 150 µg/mL (≈ 447 µM)
[12]; strain 3, after 48 hours
  MIC: 75 µg/mL (≈ 223 µM)
[12]; strain 4, after 48 hours
  MIC: 37.5 µg/mL (≈ 112 µM)
[12]; strain 5, after 48 hours
  MIC: 75 µg/mL (≈ 223 µM)
[12]; strain 6, after 48 hours
  MIC: 150 µg/mL (≈ 447 µM)
[12]; strain 8, after 48 hours
  MIC: 150 µg/mL (≈ 447 µM)
[12]; strain 9, after 48 hours
  MIC: 150 µg/mL (≈ 447 µM)
[12]; strain 29, after 48 hours
  MIC: 75 µg/mL (≈ 223 µM)
[12]; strain Atkisson, after 48 hours
  MIC: 150 µg/mL (≈ 447 µM)
[12]; strain Bertrand, after 48 hours
  MIC: 150 µg/mL (≈ 447 µM)
[12]; strain Bevan, after 48 hours
  MIC: 150 µg/mL (≈ 447 µM)
[12]; strain Blunden, after 48 hours
  MIC: 17.5 µg/mL (≈ 52.1 µM)
[12]; strain Bognay, after 48 hours
  MIC: 75 µg/mL (≈ 223 µM)
[12]; strain Boyer, after 48 hours
  MIC: 150 µg/mL (≈ 447 µM)
[12]; strain Burke, after 48 hours
  MIC: 150 µg/mL (≈ 447 µM)
[12]; strain Burnside, after 48 hours
  MIC: 75 µg/mL (≈ 223 µM)
[12]; strain Collins, after 48 hours
  MIC: 75 µg/mL (≈ 223 µM)
[12]; strain Fix, after 48 hours
  MIC: 75 µg/mL (≈ 223 µM)
[12]; strain Frazier, after 48 hours
  MIC: 150 µg/mL (≈ 447 µM)
[12]; strain Fulcher, after 48 hours
  MIC: 75 µg/mL (≈ 223 µM)
[12]; strain Gay, after 48 hours
  MIC: 150 µg/mL (≈ 447 µM)
[12]; strain Hons, after 48 hours
  MIC: 150 µg/mL (≈ 447 µM)
[12]; strain Johnson, after 48 hours
  MIC: 150 µg/mL (≈ 447 µM)
[12]; strain Kenndy 2, after 48 hours
  MIC: 150 µg/mL (≈ 447 µM)
[12]; strain Kennedy 1, after 48 hours
  MIC: 17.5 µg/mL (≈ 52.1 µM)
[12]; strain Lehtman, after 48 hours
  MIC: 150 µg/mL (≈ 447 µM)
[12]; strain Lusk, after 48 hours
  MIC: 75 µg/mL (≈ 223 µM)
[12]; strain Merkel, after 48 hours
  MIC: 75 µg/mL (≈ 223 µM)
[12]; strain Newcomb, after 48 hours
  MIC: 17.5 µg/mL (≈ 52.1 µM)
[12]; strain Sherod, after 48 hours
  MIC: 150 µg/mL (≈ 447 µM)
[12]; strain Shurelli, after 48 hours
  MIC: 150 µg/mL (≈ 447 µM)
[12]; strain Sparks, after 48 hours
  MIC: 150 µg/mL (≈ 447 µM)
[12]; strain Tyner, after 48 hours
  MIC: 75 µg/mL (≈ 223 µM)
[13]
  MIC: 7.5 µg/mL (≈ 22.3 µM)
[14]
  MIC: 3 µg/mL (≈ 8.94 µM)
[15]
  MIC: 3 µg/mL (≈ 8.94 µM)
[16]
  MIC: 7.5 µg/mL (≈ 22.3 µM)
[17]
  MIC: 7.5 µg/mL (≈ 22.3 µM)
[18]
  MIC: 17.5 µg/mL (≈ 52.1 µM)
[19]
  MIC: 75 µg/mL (≈ 223 µM)
[20]; strain A, after 96 hours
  MIC: 7.5 µg/mL (≈ 22.3 µM)
[20]; strain B, after 96 hours
  MIC: 3 µg/mL (≈ 8.94 µM)
[20]; strain C, after 96 hours
  MIC: 3 µg/mL (≈ 8.94 µM)
[20]; strain H377, after 96 hours
  MIC: 7.5 µg/mL (≈ 22.3 µM)
[20]; strain Young, after 96 hours
  MIC: 7.5 µg/mL (≈ 22.3 µM)
[21]; strain 3, after 96 hours
  MIC: 3 µg/mL (≈ 8.94 µM)
[21]; strain 360, after 96 hours
  MIC: 3 µg/mL (≈ 8.94 µM)
[21]; strain Blehl, after 96 hours
  MIC: 7.5 µg/mL (≈ 22.3 µM)
[21]; strain Haggerty, after 96 hours
  MIC: 7.5 µg/mL (≈ 22.3 µM)
[22]
  MIC: 3 µg/mL (≈ 8.94 µM)
[23]
  MIC: 17.5 µg/mL (≈ 52.1 µM)
[24]
  MIC: 7.5 µg/mL (≈ 22.3 µM)
[25]; concentration 1%
  Average No. of Days to become negative, Cultures: > 22 days
  Average No. of Days to become negative, Lesion: > 22 days
  Average Sum of lesion scores, Days 1-5: 11.6
  Average Sum of lesion scores, Days 1-10: 29.2
[25]; concentration 4%
  Average No. of Days to become negative, Cultures: 6.2 days
  Average No. of Days to become negative, Lesion: 8.8 days
  Average Sum of lesion scores, Days 1-5: 11.8
  Average Sum of lesion scores, Days 1-10: 14.2

— patent publication US4122034A, “Antimicrobial compositions” (Schering Corporation, priority 1975, dated 1978)
